According to article PMC8397297 (ACS Chemical Neuroscience, 2021):

Experiments:
HepG2 cells = assay: HepG2 hepatoma cell-based hepatotoxicity assay (MTS); conditions: 72 h of incubation
Description: (§1) To investigate the safety of compounds 2RS,4RS-39c, 50a, and 56a, a HepG2 hepatoma cell-based hepatotoxicity assay was used. Compounds were tested at six concentrations (0.1–100 μM).
(§2) Hepatotoxicity and cytotoxicity were estimated according to previously described protocols[62] using the hepatoma HepG2 (ATCC HB-8065) and human embryonic kidney HEK-293 (ATCC CRL1573) cell lines, respectively. In brief, cells were seeded in 96-well plates at a density of 0.7 × 10^4 and cultured at 37 °C in an atmosphere containing 5% CO2. Next, the compounds were added and investigated in quadruplicate at concentrations ranging from 0.1 to 100 μM for 72 h. The antiproliferative drug DX was used as the reference. The CellTiter 96 AQueous nonradioactive cell proliferation assay (MTS) purchased from Promega (Madison, WI, USA) was used for the determination of cell viability. The absorbance at 492 nm was measured using an EnSpire microplate reader (PerkinElmer, Waltham, MA, USA).

paclitaxel-treated mice = assay: paclitaxel-induced peripheral neuropathy, heat nociceptive threshold (hot plate test); type: in vivo, mouse; conditions: for effect on latency to pain reaction (heat), hot plate test: day of paclitaxel administration (paclitaxel-induced hypoalgesia); for effect on thermal nociceptive threshold, hot plate test: seven days after paclitaxel administration, i.p.
Description: Before the in vivo tests, the test compounds were suspended in 1% Tween 80 (Baxter, Poland). The compounds were then administered intraperitoneally. […] The test compounds were administered only once daily on days 1 and 7 of oxaliplatin- or paclitaxel-induced neuropathy. In STZ-treated mice, test compounds were administered 21 days after STZ injection. Control mice used in oxaliplatin and paclitaxel NP models were injected with an appropriate amount of vehicle (0.9% saline). Oxaliplatin was purchased from Activate Scientific GmbH (Germany). Paclitaxel and STZ were purchased from Sigma-Aldrich (Poland).
Doses of both paclitaxel and STZ used for the induction of neuropathy were selected based on our previous research.[66],[67] To induce neuropathy, paclitaxel was used at a dose of 18 mg/kg. It was prepared by dissolving in ethanol (100% (v/v); Polskie Odczynniki Chemiczne, Gliwice, Poland) at 10% of the final desired volume and vortexed for 2 min. An equal volume of Cremophor EL (10% of the final volume) was then added, and the mixture was vortexed for the next 10 min. Prior to injection, ice-cold physiological saline (80% of the final volume) was added to make up a final volume and the solution was maintained on ice during dosing.[66] To induce type I diabetes, mice were intraperitoneally injected with STZ (a single injection of STZ, 200 mg/kg) dissolved in 0.1 N citrate buffer. Age-matched control mice received an equal volume of citrate buffer. Blood glucose level was measured 1 day before (referred to as “day 0”) and repeatedly 1, 2, and 3 weeks after STZ injection using a blood glucose monitoring system (Accu-Chek Active, Roche, France). Blood samples for measurement of glucose concentration were obtained from the tail vein of the mice. The animals were considered as diabetic when their blood glucose concentration exceeded 300 mg/dL,[68] and only these mice (diabetic mice) were used in subsequent pain tests.[67]
Thermal (heat) nociceptive threshold was assessed in the hot plate test as previously described.[67] First, baseline (predrug) latencies to pain reaction were established for each mouse. Then, the mice were treated intraperitoneally with either the test compound or vehicle. Sixty minutes later the animals were placed on the hot plate apparatus again (hot/cold plate, Bioseb, France). This apparatus has an electrically heated surface and is supplied with a temperature-controller that maintains the temperature at 55 °C. The time until the animal licked its hind paws or jumped was recorded by means of a stop-watch. In this assay a cutoff time was established (60 s) to avoid tissue damage, and the mice not responding within 60 s were removed from the apparatus and assigned a score of 60 s.

[1] = HepG2 hepatoma cell-based hepatotoxicity assay (MTS); conditions: human, HepG2 hepatoma cells; 25 μM, 72 h, control 1% DMSO in culture media; read-out: HepG2 cell viability compared to the control
Description: as §1, §2

Structure (SMILES) | concentration with statistically significant (p < 0.0001) decrease in HepG2 cell viability (HepG2 cells; tested 0.1–100 μM) [µM] | effect on latency to pain reaction (heat), hot plate test (paclitaxel-treated mice; 30 mg/kg i.p.) | effect on thermal nociceptive threshold, hot plate test (paclitaxel-treated mice) | viability at 72 h, 25 µM [1] [%] | hepatotoxicity in HepG2 cells (HepG2 cells; concentrations up to 25 μM) | effect on latency to pain reaction (heat), hot plate test (paclitaxel-treated mice; 10 mg/kg i.p.)
Cc1ccc(CNC(=O)[C@@H](C[C@@H](C)O)N(C)CCC=C2c3ccccc3CCc3ccccc32)cc1 (relative stereo) [Compound 2RS,4RS-39c, 2-((3-(10,11-Dihydro-5H-dibenzo[a,d][7]annulen-5-ylidene)propyl)(methyl)amino)-4-hydroxy-N-(4-methylbenzyl)pentanamide] | 25 | – | – | – | – | –
CN(CCON=C(c1ccccc1)c1ccccc1)C(CCN)C(=O)NCc1ccccc1Cl (centres unmarked) [Compound 50a, 4-Amino-N-[(2-chlorophenyl)methyl]-2-[(2-{[(diphenylmethylidene)amino]oxy}ethyl)(methyl)amino]butanamide] | – | reduced latency to pain reaction | did not reveal the effect of paclitaxel and compounds 50a and 56a on the thermal nociceptive threshold | – | – | –
CN(CCC=C1c2ccccc2CCc2ccccc21)C(CO)C(=O)NCc1ccccc1 (centres unmarked) [Compound 56a, N-Benzyl-2-((3-(10,11-dihydro-5H-dibenzo[a,d][7]annulen-5-ylidene)propyl)(methyl)amino)-3-hydroxypropanamide] | – | reduced latency to pain reaction | did not reveal the effect of paclitaxel and compounds 50a and 56a on the thermal nociceptive threshold | 100 | did not induce significant hepatotoxicity | reduced latency to pain reaction
